Reference: ChEMBL document CHEMBL1201862, “PubChem BioAssay data set” (2004)
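All cell lines were grown in 96-well plates and treated with compound for 48 hours. Here, GI50 denotes the concentration required for 50% inhibition of growth.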 Active and inactive are the calls of the source. Rule as the data show it: active = GI50 up to about 1.1 µM and inactive = higher.

Tests used:
Assay in all cases: inhibition of tumour cell growth, NCI panel, 48 h
NCI-H460 = test system: NCI-H460
SK-MEL-28 = test system: SK-MEL-28
HCT-116 = test system: HCT-116
MCF7 = test system: MCF7
DU-145 = test system: DU-145
MDA-MB-435 = test system: MDA-MB-435
SW-620 = test system: SW-620
NCI/ADR-RES = test system: NCI/ADR-RES
A549 = test system: A549
TK-10 = test system: TK-10
HCT-15 = test system: HCT-15
SK-OV-3 = test system: SK-OV-3
CAKI-1 = test system: CAKI-1
UACC-257 = test system: UACC-257
T47D = test system: T47D
A498 = test system: A498
SN12C = test system: SN12C
Malme-3M = test system: Malme-3M
HOP-92 = test system: HOP-92
NCI-H226 = test system: NCI-H226

SMILES | GI50 (NCI-H460) | GI50 (SK-MEL-28) | GI50 (HCT-116) | GI50 (MCF7) | GI50 (DU-145) | GI50 (MDA-MB-435) | GI50 (SW-620) | GI50 (NCI/ADR-RES) | GI50 (A549) | GI50 (TK-10) | GI50 (HCT-15) | GI50 (SK-OV-3) | GI50 (CAKI-1) | GI50 (UACC-257) | GI50 (T47D) | GI50 (A498) | GI50 (SN12C) | GI50 (Malme-3M) | GI50 (HOP-92) | GI50 (NCI-H226)
COC(=O)/C=c1/c2ccccc2n2nc3ccccc3c12 | 43.9 µM (inactive) | > 100 µM (inactive) | 22.8 µM (inactive) | 42.6 µM (inactive) | > 100 µM (inactive) | 33 µM (inactive) | 65 µM (inactive) | 30.8 µM (inactive) | 65.9 µM (inactive) | 31.6 µM (inactive) | 77.1 µM | 16 µM (inactive) | 63 µM (inactive) | 80.9 µM (inactive) | > 100 µM (inactive) | 26.2 µM (inactive) | 66.8 µM (inactive) | 99.1 µM (inactive) | – | –
SCc1ccc(CS)s1 | > 100 µM (inactive) | > 100 µM (inactive) | > 100 µM (inactive) | > 100 µM (inactive) | > 100 µM (inactive) | > 100 µM (inactive) | > 100 µM (inactive) | > 100 µM (inactive) | > 100 µM (inactive) | > 100 µM (inactive) | > 100 µM | > 100 µM (inactive) | – | > 100 µM (inactive) | > 100 µM (inactive) | – | > 100 µM (inactive) | – | 15.3 µM (inactive) | –
Oc1ccc(/C=C/c2ccc3cccc(O)c3n2)cc1O | 3.11 µM (inactive) | 13 µM (inactive) | 3.77 µM (inactive) | 2.42 µM (inactive) | 2.79 µM (inactive) | 5.9 µM (inactive) | 4.24 µM (inactive) | 0.493 µM (active) | 4.23 µM (inactive) | 9.31 µM (inactive) | 3.29 µM | 23.7 µM (inactive) | 4.98 µM (inactive) | 10.5 µM (inactive) | 1.75 µM (inactive) | 11.5 µM (inactive) | 2.94 µM (inactive) | – | 15.9 µM (inactive) | –
CC1(C)CN=C(Nc2ccc(F)c(F)c2)S1 | – | > 100 µM (inactive) | > 100 µM (inactive) | > 100 µM (inactive) | > 100 µM (inactive) | > 100 µM (inactive) | > 100 µM (inactive) | > 100 µM (inactive) | > 100 µM (inactive) | > 100 µM (inactive) | > 100 µM | > 100 µM (inactive) | > 100 µM (inactive) | > 100 µM (inactive) | > 100 µM (inactive) | – | > 100 µM (inactive) | > 100 µM (inactive) | 31.4 µM (inactive) | > 100 µM (inactive)
O=C(Cc1ccccc1)NN1C(=O)/C(=C\c2ccccc2)S/C1=N\c1ccccc1 | > 100 µM (inactive) | > 100 µM (inactive) | > 100 µM (inactive) | > 100 µM (inactive) | > 100 µM (inactive) | > 100 µM (inactive) | > 100 µM (inactive) | > 100 µM (inactive) | > 100 µM (inactive) | > 100 µM (inactive) | > 100 µM | > 100 µM (inactive) | – | > 100 µM (inactive) | > 100 µM (inactive) | > 100 µM (inactive) | > 100 µM (inactive) | – | > 100 µM (inactive) | > 100 µM (inactive)
Nc1nc2c(C(=O)O)c3ccc([N+](=O)[O-])cc3c(=O)n2c2ccccc12 | 30.1 µM (inactive) | 52.8 µM (inactive) | 16.9 µM (inactive) | 16.2 µM (inactive) | 16.5 µM (inactive) | 27.2 µM (inactive) | 39 µM (inactive) | 20.5 µM (inactive) | 26.2 µM (inactive) | – | 22.9 µM | 21 µM (inactive) | 34.4 µM (inactive) | – | 20.4 µM (inactive) | 43.7 µM (inactive) | 18 µM (inactive) | 40 µM (inactive) | – | 21.2 µM (inactive)
CC(=O)SCCC(NC(=S)Nc1ccccc1)P(=O)(Oc1ccccc1)Oc1ccccc1 (centres undefined) | > 100 µM (inactive) | > 100 µM (inactive) | > 100 µM (inactive) | > 100 µM (inactive) | > 100 µM (inactive) | > 100 µM (inactive) | > 100 µM (inactive) | > 100 µM (inactive) | > 100 µM (inactive) | 60.8 µM (inactive) | > 100 µM | > 100 µM (inactive) | > 100 µM (inactive) | > 100 µM (inactive) | > 100 µM (inactive) | – | > 100 µM (inactive) | > 100 µM (inactive) | > 100 µM (inactive) | > 100 µM (inactive)
CC1(C)CC[C@]2(C(=O)O)CC[C@]3(C)C(=CC[C@@H]4[C@@]5(C)C[C@H](O)[C@H](O)[C@@](C)(CO)C5=CC[C@]43C)[C@@H]2C1 | 21.3 µM (inactive) | > 100 µM (inactive) | 32.5 µM (inactive) | 46.7 µM (inactive) | 39.6 µM (inactive) | > 100 µM (inactive) | > 100 µM (inactive) | 41.1 µM (inactive) | 28.8 µM (inactive) | > 100 µM (inactive) | 40.7 µM | > 100 µM (inactive) | 55 µM (inactive) | > 100 µM (inactive) | 35.8 µM (inactive) | > 100 µM (inactive) | 51.9 µM (inactive) | > 100 µM (inactive) | > 100 µM (inactive) | –
CN1CCN(Cc2cc3c(nn2)-c2ccccc2C3=O)CC1 | 34.4 µM (inactive) | – | 30.4 µM (inactive) | 30.8 µM (inactive) | > 100 µM (inactive) | 23.7 µM (inactive) | 52.7 µM (inactive) | 50.1 µM (inactive) | > 100 µM (inactive) | > 100 µM (inactive) | 26.2 µM | > 100 µM (inactive) | > 100 µM (inactive) | 19.2 µM (inactive) | 49 µM (inactive) | – | – | 19.1 µM (inactive) | > 100 µM (inactive) | > 100 µM (inactive)
CCSc1nnc2c(-c3ccccc3)n[nH]c2n1 | > 100 µM (inactive) | > 100 µM (inactive) | > 100 µM (inactive) | > 100 µM (inactive) | > 100 µM (inactive) | > 100 µM (inactive) | > 100 µM (inactive) | > 100 µM (inactive) | > 100 µM (inactive) | > 100 µM (inactive) | > 100 µM | 44.3 µM (inactive) | > 100 µM (inactive) | > 100 µM (inactive) | > 100 µM (inactive) | – | – | – | 37.4 µM (inactive) | > 100 µM (inactive)
O=C1CCCC(=O)N1n1c(Cc2ccc(Cl)cc2)n[nH]c1=O | > 100 µM (inactive) | > 100 µM (inactive) | > 100 µM (inactive) | > 100 µM (inactive) | > 100 µM (inactive) | > 100 µM (inactive) | > 100 µM (inactive) | > 100 µM (inactive) | > 100 µM (inactive) | > 100 µM (inactive) | > 100 µM | > 100 µM (inactive) | > 100 µM (inactive) | > 100 µM (inactive) | > 100 µM (inactive) | – | > 100 µM (inactive) | > 100 µM (inactive) | – | > 100 µM (inactive)
[N-]=[N+]=Nc1c(C=O)c(=O)n(-c2ccccc2)c2ccccc12 | 29.6 µM (inactive) | 16.9 µM (inactive) | > 10 µM (inactive) | 27 µM (inactive) | 25.5 µM (inactive) | 18.5 µM (inactive) | 2.51 µM (inactive) | 23.7 µM (inactive) | 39.3 µM (inactive) | 19.5 µM (inactive) | 18.4 µM | 31.5 µM (inactive) | 14 µM (inactive) | 22.9 µM (inactive) | 13.9 µM (inactive) | 0.0778 µM (active) | 42.3 µM (inactive) | 15.6 µM (inactive) | 13.4 µM (inactive) | –
